Assay results as given in patent EP4610269A1, “UROKINASE PLASMINOGEN ACTIVATOR SURFACE RECEPTOR (UPAR) LIGANDS FOR DIAGNOSTIC OR THERAPEUTIC USE” (3B Pharmaceuticals GmbH, priority 2024, dated 2025).
Like-named read-outs stand apart in the source and are kept apart here. Where a SMILES comes first, the peptide text is derived from it. Bridges are numbered along the chain shown (N, C = ends). [ ]: non-standard residue; d: D form. The star is where a group is joined. DOTA = O=C(O)CN1CCN(CC(=O)O)CCN(CC(=O)*)CCN(CC(=O)O)CC1; X8 = O=C(CN(CC(=O)NC(CO)(CO)CO)CC(=O)*)NC(CO)(CO)CO; Pro(trans-4-F) = O=C(O)[C@@H]1C[C@@H](F)CN1; Hyp = O=C(O)[C@@H]1C[C@@H](O)CN1; hPhe = N[C@@H](CCc1ccccc1)C(=O)O; Pentanoyl(4-Me) = CC(C)CCC(=O)*; Cit = NC(=O)NCCC[C@H](N)C(=O)O; Butoxycarbonyl = CCCCOC(=O)*; NMeA = CN[C@@H](C)C(=O)O; Nle = CCCC[C@H](N)C(=O)O; Orn = NCCC[C@H](N)C(=O)O; Nva = CCC[C@H](N)C(=O)O; Pentanoyl = CCCCC(=O)*; Ava = NCCCCC(=O)O

Columns and labels:
[1] = molecular target: T1, uPAR-expressing HEC-265 human endometrial adenocarcinoma cells (Homo sapiens, UniProt Q03405); assay: Competitive FACS binding assay; conditions: pIC50 category of FACS binding
T1 construct: Cell surface uPAR-expressing HEC-265 human endometrial adenocarcinoma cells; host or cells: HEC-265
T1 sequence (Q03405 23-335): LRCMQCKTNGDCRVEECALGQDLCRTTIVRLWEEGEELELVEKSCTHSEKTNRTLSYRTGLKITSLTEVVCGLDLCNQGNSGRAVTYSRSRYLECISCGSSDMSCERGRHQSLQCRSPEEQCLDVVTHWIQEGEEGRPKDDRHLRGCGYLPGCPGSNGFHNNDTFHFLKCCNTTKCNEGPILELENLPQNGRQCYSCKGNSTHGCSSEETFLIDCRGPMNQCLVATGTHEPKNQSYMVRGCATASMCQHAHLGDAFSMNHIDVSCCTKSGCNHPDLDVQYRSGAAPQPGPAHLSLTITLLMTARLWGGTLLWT
Procedure: In order to determine binding of compounds according to the present invention to uPAR-expressing cells, a competitive FACS binding assay was established.
Cell surface uPAR-expressing HEC-265 human endometrial adenocarcinoma cells (Japanese Collection of Research Bioresources, #JCRB1142) were cultured in MEM Eagle with stable glutamine (Pan Biotech, #P04-09500) including 15% fetal bovine serum (Pan Biotech, #P30-3306) and 100 U/ml penicillin and 100 µg/mL streptomycin (Pan Biotech, #P06-07100). Cells were detached with Cell Dissociation Buffer (Thermo Scientific, #13151014) and washed in FACS buffer (PBS (Pan Biotech, #P04-36500) including 1% BSA (SeraCare, #AP-4510-80). Cells were diluted in FACS buffer to a final concentration of 500.000 cells per ml and 200 µl of the cell suspension are transferred to a u-shaped non-binding 96-well plate (Greiner Bio-One, #650901).
For IC50 determination, cells were incubated with 10 nM Bio--Ttds--Ttds--Ttds--Ttds-D-Cha-FsrYLWS-NH2) in the presence of increasing concentrations of non-labeled test compounds at 4°C for 1 hour. Cells were washed twice in FACS buffer. An additional incubation step with 1 µg/mL APC-Streptavidin (Miltenyi; #130-106-791) in 50 µL FACS buffer for 30 minutes on ice was performed followed by two washes with FACS buffer. Cells were resuspended in 200 µl FACS buffer and analyzed in an Attune NxT flow cytometer. Median fluorescence intensities (APC channel) were calculated by Attune NxT software and plotted against peptide concentrations. Four parameter logistic (4PL) curve fitting and pIC50 calculations were performed using ActivityBase software.

[2] = molecular target: T2, human uPAR (uPAR-Fc) (Homo sapiens, UniProt Q03405); assay: Surface plasmon resonance (SPR) assay, single cycle kinetics; format: binding; conditions: pKD category for uPAR SPR activity assay, uPAR-Fc on Protein A-Chip, 25°C; for Kd: read-out: pKD CAT (converted)
T2 construct: comprising amino acids Leu23-Arg303 according to UniProt entry Q03405.1; purchased R&D Systems 10378-UK-100
T2 sequence (Q03405 23-303): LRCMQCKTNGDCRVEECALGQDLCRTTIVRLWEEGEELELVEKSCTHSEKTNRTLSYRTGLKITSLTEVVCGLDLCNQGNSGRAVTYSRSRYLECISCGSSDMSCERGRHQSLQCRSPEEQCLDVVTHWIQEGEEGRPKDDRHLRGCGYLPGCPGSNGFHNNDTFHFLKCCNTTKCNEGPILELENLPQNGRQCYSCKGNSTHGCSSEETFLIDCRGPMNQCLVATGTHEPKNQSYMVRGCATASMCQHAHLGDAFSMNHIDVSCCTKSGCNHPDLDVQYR
Procedure: Surface plasmon resonance (SPR) is an optical technique used to measure molecular interactions in real time. SPR occur when plane-polarized light hits a metal film under total internal reflection conditions. SPR signal is directly dependent on the refractive index of the medium on the sensor chip. In an SPR experiment, one molecule (i.e. uPAR) is immobilized on a sensor chip and binding to a second molecule (i.e. test compounds) is measured under flow. The binding of the compound on the surface changes the refractive index. In responses the reflection angle changes as compounds bind and dissociate on the immobilized protein on the surface. This response is measured in resonance units (RU). The RUs are proportional to the number of molecules bound to the surface. […] Kinetic binding constants and equilibrium binding constants can be derived from the sensorgrams.
Surface plasmon resonance (SPR) studies were performed using a Biacore™ T200 or S200 SPR system (Cytiva, formerly GE Life Sciences) to assess binding of compounds to recombinant uPAR protein.
In this example recombinant protein comprising the extracellular domains of human uPAR (uPAR-Fc, R&D Systems, CAT 10378-UK-100, comprising amino acids Leu23-Arg303 according to UniProt entry Q03405.1 and Fc region of human IgG1 at the C-terminus) was immobilized on a Protein A-Chip (Cytiva, CAT 29127555) according to the supplier's instructions. uPAR-Fc was diluted in Running Buffer (10 mM HEPES, 150 mM NaCl, 50 µM EDTA, 0.1% DMSO, 0.05% Tween-20, pH 7.4) to a final concentration of 100 nM and then flushed over the Protein A-Chip to immobilized ~2000 RUs.
Stock solutions of test compounds were prepared by dissolving each compound in DMSO. DMSO stock solution were diluted 1: 1000 in Running Buffer without DMSO. Further sequential dilutions were made with Running Buffer containing 0.1% DMSO. SPR binding analyses were performed in Single Cycle Kinetic (SCK) mode at 25°C. Flow cell without immobilized uPAR-Fc served as reference flow cell. The chip was regenerated with 10 mM Glycine, pH 1,5 to remove the uPAR-Fc from the chip surface after each SCK run. After every three SCK measurements, a blank run with Running Buffer instead of test compound was included to correct for baseline drifts (double reference substraction method). Table 11: SPR protocol steps for SCK with uPAR-Fc immobilized on a Protein A-Chip.
For each test compound, SPR raw data sensorgrams were recorded using the Biacore™ T200 or S200 control software. Sensorgrams were processed and analyzed with the Biacore™ Insight Evaluation software. […] The reference subtracted sensorgram for each test compound was further corrected for baseline drift by subtracting the sensorgram of a reference subtracted blank run (Running Buffer only). The dissociation constant (KD) was calculated from the double reference subtracted sensorgrams using the 1:1 Langmuir binding model. The pKD value (negative decadic logarithm of dissociation constant) was calculated using Microsoft Excel.

| Compound | IC50 [1] [nM] | Kd [2] [nM] | Kd ([2]; single cycle kinetics) [nM] | also measured |
| --- | --- | --- | --- | --- |
| CC[C@H](C)[C@@H]1NC(=O)[C@@H]2C[C@@H](F)CN2C(=O)[C@@H]2CCCN2C(=O)[C@H](Cc2ccccc2)NC(=O)[C@H](Cc2ccc(O)cc2)NC(=O)[C@H](CCC(N)=O)NC(=O)[C@H](CCCNC(N)=O)NC(=O)[C@@H](NC(=O)CCC(C)C)CSSC[C@@H](C(N)=O)NC(=O)[C@H](CC(C)C)NC1=O [UPAR-220, iHex-[Cys-Cit-Gln-Tyr-Phe-Pro-4Tfp-Ile-Leu-Cys]-NH2] ({Pentanoyl(4-Me)}-C[Cit]QYFP[Pro(trans-4-F)]ILC-NH2; disulfide 1-10) | ≤ 10 | < 1.58 |  |  |
| CCCCC(=O)N[C@H]1CSSC[C@@H](C(N)=O)NC(=O)[C@H](Cc2ccccc2)NC(=O)[C@H]([C@@H](C)CC)NC(=O)[C@@H]2C[C@@H](O)CN2C(=O)[C@@H]2CCCN2C(=O)[C@H](Cc2ccccc2)NC(=O)[C@H](Cc2ccc(O)cc2)NC(=O)[C@H](CCC(N)=O)NC(=O)[C@H](CCCNC(=N)N)NC1=O [UPAR-171, Pent-[Cys-Arg-Gln-Tyr-Phe-Pro-Hyp-Ile-Phe-Cys]-NH2] (Pentanoyl-CRQYFP[Hyp]IFC-NH2; disulfide 1-10) | 12.6 to 31.6 | 1.58 to 10 |  |  |
| CC[C@H](C)[C@@H]1NC(=O)[C@@H](C)NC(=O)[C@@H]2CCCN2C(=O)[C@H](Cc2ccccc2)NC(=O)[C@H](Cc2ccc(O)cc2)NC(=O)[C@H](CCC(N)=O)NC(=O)[C@H](CCCNC(N)=O)NC(=O)[C@@H](NC(=O)CCCCN)CSSC[C@@H](C(N)=O)NC(=O)[C@H](CC(C)C)NC1=O [UPAR-394, H-Ava-[Cys-Cit-Gln-Tyr-Phe-Pro-ala-Ile-Leu-Cys]-NH2] (H-[Ava]C[Cit]QYFP[dA]ILC-NH2; disulfide 2-11) | ≥ 126 |  | > 100 |  |
| CC[C@H](C)[C@@H]1NC(=O)[C@@H]2C[C@@H](O)CN2C(=O)[C@@H]2CCCN2C(=O)[C@H](Cc2ccccc2)NC(=O)[C@H](Cc2ccc(O)cc2)NC(=O)[C@H](CC(=O)O)NC(=O)[C@H](CCCNC(N)=O)NC(=O)[C@@H](NC(=O)CCC(C)C)CSSC[C@@H](C(N)=O)NC(=O)[C@H](CC(C)C)NC1=O [UPAR-410, iHex-[Cys-Cit-Asp-Tyr-Phe-Pro-Hyp-Ile-Leu-Cys]-NHz] ({Pentanoyl(4-Me)}-C[Cit]DYFP[Hyp]ILC-NH2; disulfide 1-10) | ≤ 10 |  | < 1.58 |  |
| CCCCC(=O)N[C@H]1CSSC[C@@H](C(N)=O)NC(=O)[C@H](CCC)NC(=O)[C@H]([C@@H](C)CC)NC(=O)[C@@H]2C[C@@H](O)CN2C(=O)[C@@H]2CCCN2C(=O)[C@H](Cc2ccccc2)NC(=O)[C@H](Cc2ccc(O)cc2)NC(=O)[C@H](CCCCNC(=O)CN2CCN(CC(=O)O)CCN(CC(=O)O)CCN(CC(=O)O)CC2)NC(=O)[C@H](CCCNC(=O)CN(CC(=O)NC(CO)(CO)CO)CC(=O)NC(CO)(CO)CO)NC1=O [UPAR-224, Pent-[Cys-Orn(Tris-Nta(Tris))-Lys(DOTA)-Tyr-Phe-Pro-Hyp-Ile-Nva-Cys]-NH2] (Pentanoyl-C[Orn](X8)K(DOTA)YFP[Hyp]I[Nva]C-NH2; disulfide 1-10) | ≤ 10 | < 1.58 |  |  |
| CCCCC(=O)N[C@H]1CSSC[C@@H](C(N)=O)NC(=O)[C@H](CCC)NC(=O)[C@H]([C@@H](C)CC)NC(=O)[C@H](C)N(C)C(=O)[C@@H]2CCCN2C(=O)[C@H](Cc2ccccc2)NC(=O)[C@H](Cc2ccc(O)cc2)NC(=O)[C@H](CCCCNC(=O)CN2CCN(CC(=O)O)CCN(CC(=O)O)CCN(CC(=O)O)CC2)NC(=O)[C@H](CCCNC(N)=O)NC1=O [UPAR-316, Pent-[Cys-Cit-Lys(DOTA)-Tyr-Phe-Pro-Nma-Ile-Nva-Cys]-NH2] (Pentanoyl-C[Cit]K(DOTA)YFP[NMeA]I[Nva]C-NH2; disulfide 1-10) | 12.6 to 31.6 | 1.58 to 10 |  |  |
| CCCCOC(=O)N[C@H]1CSSC[C@@H](C(N)=O)NC(=O)[C@H](CC(C)C)NC(=O)[C@H]([C@@H](C)CC)NC(=O)[C@@H](C)NC(=O)[C@@H]2CCCN2C(=O)[C@H](Cc2ccccc2)NC(=O)[C@H](Cc2ccc(O)cc2)NC(=O)[C@H](CCC(N)=O)NC(=O)[C@H](CCCNC(N)=O)NC1=O [UPAR-155, Butoc-[Cys-Cit-Gln-Tyr-Phe-Pro-ala-Ile-Leu-Cys]-NH2] (Butoxycarbonyl-C[Cit]QYFP[dA]ILC-NH2; disulfide 1-10) | ≤ 10 | < 1.58 |  |  |
| Pent-[Cys-Cit-Lys(LaDOTA)-Ppa-Phe-Pro-Hyp-Ile-Nva-Cys]-NH2 [UPAR-296] |  |  |  | pIC50 CAT [1]: A (pIC50 values ≥8.0); pKD CAT [2]: A (pKD values ≥ 8.8) |
| CCCC[C@@H]1NC(=O)[C@H](CCCNC(=N)N)NC(=O)[C@@H](NC(=O)[C@H](CC(C)C)NC(=O)[C@H](CC(=O)O)NC(C)=O)CSSC[C@@H](C(N)=O)NC(=O)[C@H](CC(C)C)NC(=O)[C@H]([C@@H](C)CC)NC(=O)[C@@H](C)NC(=O)[C@@H]2CCCN2C(=O)[C@H](Cc2ccccc2)NC(=O)[C@H](Cc2ccc(O)cc2)NC1=O [UPAR-406, Ac-Asp-Leu-[Cys-Arg-Nle-Tyr-Phe-Pro-ala-Ile-Leu-Cys]-NH2] (Ac-DLCR[Nle]YFP[dA]ILC-NH2; disulfide 3-12) | ≤ 10 |  | < 1.58 |  |
| Pent-[Cys-Cit-Lys(GdDOTA)-Mpa-Phe-Pro-Hyp-Ile-Nva-Cys]-NH2 [UPAR-251] |  |  |  | pIC50 CAT [1]: A (pIC50 values ≥8.0); pKD CAT [2]: A (pKD values ≥ 8.8) |
| Pent-[Cys-Cit-Lys(InDOTA-PEG12)-Tyr-Phe-Pro-Hyp-Ile-Nva-Cys]-NH2 (Pentanoyl-C[Cit]KYFP[Hyp]I[Nva]C-NH2; disulfide 1-10; not fully specified (residue 3); printed as Pent-[Cys-Cit-Lys(InDOTA-PEG12)-Tyr-Phe-Pro-Hyp-Ile-Nva-Cys]-NH2; also: In(III) complexed by DOTA) [UPAR-404] |  |  |  | pIC50 CAT [1]: A (pIC50 values ≥8.0); pKD CAT ([2]; single cycle kinetics): A (pKD values ≥ 8.8) |
| CCC[C@@H]1NC(=O)[C@H]([C@@H](C)CC)NC(=O)[C@@H]2C[C@@H](O)CN2C(=O)[C@@H]2CCCN2C(=O)[C@H](Cc2ccccc2)NC(=O)[C@H](Cc2ccc(O)cc2)NC(=O)[C@H](CCC(N)=O)NC(=O)[C@H](CCCNC(=N)N)NC(=O)[C@@H](NC(=O)[C@H](CCc2ccccc2)NC(C)=O)CSSC[C@@H](C(N)=O)NC1=O [UPAR-484, Ac-Hfe-[Cys-Arg-Gln-Tyr-Phe-Pro-Hyp-Ile-Nva-Cys]-NH2] (Ac-[hPhe]CRQYFP[Hyp]I[Nva]C-NH2; disulfide 2-11) | ≤ 10 |  | 1.58 to 10 |  |
